Reference: US9000191B2, “Serotonin reuptake inhibitors” (Theravance Biopharma R&D IP, LLC, priority 2010, dated 2015)

Target: T1, hSERT (Homo sapiens, UniProt P31645)
T1 construct: expressed in transfected cells; host or cells: HEK293 (stably transfected, G418 selection)
Test: hSERT neurotransmitter uptake assay
Type: cell-based
Details: serotonin reuptake inhibition, HEK293-hSERT cells; read-out: SERT pIC50 (converted)
Experimental: Neurotransmitter uptake assays were used to measure inhibition of ^3H-serotonin (^3H-5-HT) uptake into cells expressing hSERT in order to determine the pIC50 values of test compounds at the transporter, similar to the procedures described in Tsuruda et al. (2010) Journal of Pharmacological and Toxicological Methods 61(2):192-204.
HEK293 cells stably-transfected with human recombinant SERT (HEK293-hSERT) were grown in DMEM medium supplemented with 10% dialyzed fetal bovine serum, 100 μg/ml penicillin, 100 μg/ml streptomycin, 2 mM L-glutamine, and 250 μg/ml of the aminoglycoside antibiotic G418. Cells were incubated in a 5% CO2, humidified incubator at 37° C.
The neurotransmitter uptake assay was performed in a 96-well assay plate in a total volume of 100 μL assay buffer containing HEK293-hSERT cells (7500-10,000 cells/well; plated ˜2 hours prior to assay initiation. Neurotransmitter Transporter Uptake Assay dye (0.5 μM), and eleven different concentrations of compound ranging from 10 μM to […] was used. Non-specific uptake was determined in the presence of indatraline (2.5 μM). The final assay buffer was 12.5 mM Tris-HCl, 5 mM HEPES, 3 mM NaHCO3, 0.3 mM KH2PO4, 0.25 mM Na2HPO4, 130 mM NaCl, 5 mM KCl, 1 mM CaCl2, 0.4 mM MgCl2, 0.3 mM MgSO4, 4 mM D-glucose, 0.025% BSA, 0.1 mM ascorbic acid, pH 7.4.
In pre-incubation studies, test compound was added to cells for 30 minutes at 37° C. prior to the addition of fluorescent substrate. For determination of inhibitory potency, a 10-30 minute endpoint substrate accumulation was determined by fluorescence spectroscopy using a Safire (Tecan Group Ltd., Minnendorf, Switzerland) and analysis was performed as described in Tsuruda et al., supra. For real-time measurements, compounds were either preincubated (as above) or mixed with substrate prior to addition, and kinetic measurements, relative fluorescence units (RFU integrated over 0.5 ms), were made using a cycle time of 1 min.

T1 sequence (P31645 whole entry): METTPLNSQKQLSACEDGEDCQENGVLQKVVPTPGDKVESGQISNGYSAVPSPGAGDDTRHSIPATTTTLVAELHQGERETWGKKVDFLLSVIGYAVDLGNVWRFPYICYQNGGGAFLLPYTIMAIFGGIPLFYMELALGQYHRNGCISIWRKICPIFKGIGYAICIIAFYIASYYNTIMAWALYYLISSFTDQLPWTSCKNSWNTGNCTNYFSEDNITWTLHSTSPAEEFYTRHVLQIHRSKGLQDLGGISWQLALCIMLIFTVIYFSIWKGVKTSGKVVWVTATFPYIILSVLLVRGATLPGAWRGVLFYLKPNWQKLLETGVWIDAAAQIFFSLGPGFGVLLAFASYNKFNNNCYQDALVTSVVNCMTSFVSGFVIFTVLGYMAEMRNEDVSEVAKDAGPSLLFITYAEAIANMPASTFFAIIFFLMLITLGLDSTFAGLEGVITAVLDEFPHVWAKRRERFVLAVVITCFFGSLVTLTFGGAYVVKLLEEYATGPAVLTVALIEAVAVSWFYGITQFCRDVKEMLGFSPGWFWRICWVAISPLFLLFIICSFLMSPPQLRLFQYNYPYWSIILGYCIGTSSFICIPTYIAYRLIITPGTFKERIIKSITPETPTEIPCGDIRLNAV

Work on `O=S(=O)(CCC(Oc1ccc(C(F)(F)F)cc1)[C@H]1CCNC1)c1ccccc1` (stereo partly drawn) [Example 7, (S)-3-[3-Benzenesulfonyl-1-(4-trifluoromethylphenoxy)propyl]pyrrolidine] yielded an IC50 of no more than 10 nM.
In the case of `CCS(=O)(=O)C[C@@H](Oc1ccc(C(F)(F)F)cc1)[C@H]1CCNC1` [Example 2-12, (S)-3-[(S)-2-Ethanesulfonyl-1-(4-trifluoromethyl-phenoxy)ethyl]pyrrolidine], the IC50 is reported as no more than 10 nM.
For `CS(=O)(=O)C[C@H](Oc1ccc(C(F)(F)F)cc1)[C@H]1CCNC1` [Example 2-1, (S)-3-[(R)-2-Methanesulfonyl-1-(4-trifluoromethylphenoxy)ethyl]pyrrolidine], the IC50 was no more than 10 nM.
For `COC(=O)CS(=O)(=O)C[C@@H](Oc1ccc(C(F)(F)F)cc1)[C@H]1CCNC1` [Example 2-16, [(S)-(S)-Pyrrolidin-3-yl-(4-trifluoromethylphenoxy)ethanesulfonyl]acetic acid methyl ester], the IC50 was no more than 10 nM.
Work on `CS(=O)(=O)CCC(Oc1ccc(C(F)(F)F)cc1)[C@H]1CCNC1` (single isomer, unassigned) [Example 8-3] yielded an IC50 of no more than 100 nM.
Work on `CS(=O)(=O)C[C@@H](Oc1ccc([N+](=O)[O-])cc1)[C@H]1CCNC1` [Example 2-5, (S)-3-[(S)-2-Methanesulfonyl-1-(4-nitrophenoxy)ethyl]pyrrolidine] yielded an IC50 of no more than 100 nM.
`CS(=O)(=O)C[C@@H](Oc1ccc(Cl)nc1)[C@H]1CCNC1` [Example 6-3, 2-Chloro-5-((S)-2-methanesulfonyl-1-(S)-pyrrolidin-3-ylethoxy)pyridine] was tested, and the IC50 was no more than 100 nM.
Compound `Cc1cc(Cl)ccc1O[C@@H](CS(C)(=O)=O)[C@H]1CCNC1` [Example 2-28, (S)-3-[(R)-1-(4-Chloro-2-methylphenoxy)-2-methanesulfonylethyl]pyrrolidine] has an IC50 of no more than 10 nM.
Work on `O=S(=O)(C[C@@H](Oc1ccc(C(F)(F)F)cc1)[C@H]1CCNC1)c1ccncc1` [Example 2-19, 4-[(S)-2-(S)-Pyrrolidin-3-yl-2-(4-trifluoromethylphenoxy)ethanesulfonyl]pyridine] yielded an IC50 of no more than 100 nM.
Work on `COc1cc([N+](=O)[O-])ccc1O[C@@H](CS(C)(=O)=O)[C@@H]1CCNC1` [Example 2-27, (R)-3-[(R)-2-Methanesulfonyl-1-(2-methoxy-4-nitrophenoxy)ethyl]pyrrolidine] yielded an IC50 of no more than 100 nM.
In the case of `CS(=O)(=O)C[C@H](Oc1ccc(C(F)(F)F)cc1)[C@@H]1CCNC1` [Example 2-2, (R)-3-[(R)-2-Methanesulfonyl-1-(4-trifluoromethylphenoxy)ethyl]pyrrolidine], the IC50 is reported as no more than 10 nM.
With `CS(=O)(=O)C[C@H](Oc1ccc(OC(F)(F)F)cc1)[C@H]1CCNC1` [Example 2-10, (S)-3-[(R)-2-Methanesulfonyl-1-(4-trifluoromethoxyphenoxy)ethyl]pyrrolidine] the IC50 was no more than 100 nM.
`CC(=O)Nc1ccc(S(=O)(=O)C[C@@H](Oc2ccc(C(F)(F)F)cc2)[C@H]2CCNC2)cc1` [Example 2-18, N-{4-[(S)-2-(S)-Pyrrolidin-3-yl-2-(4-trifluoromethylphenoxy)ethanesulfonyl]-phenyl}-acetamide] showed an IC50 of no more than 10 nM.
`CS(=O)(=O)C[C@@H](Oc1ccc(Cl)c(C#N)c1)[C@@H]1CCNC1` (stereo in doubt) [Example 2-23, 2-Chloro-5-((R)-2-methanesulfonyl-1-(S)-pyrrolidin-3-ylethoxy)benzonitrile] gave an IC50 of no more than 100 nM.
For `CS(=O)(=O)C[C@@H](Oc1ccc(C(F)(F)F)cc1)[C@@H]1CCNC1` [Example 2-3, (R)-3-[(S)-2-Methanesulfonyl-1-(4-trifluoromethylphenoxy)ethyl]pyrrolidine], the IC50 was no more than 10 nM.
For `O=S(=O)(CCO)C[C@@H](Oc1ccc(C(F)(F)F)cc1)[C@H]1CCNC1` [Example 2-15, 2-[(S)-2-(S)-Pyrrolidin-3-yl-2-(4-trifluoromethylphenoxy)ethanesulfonyl]ethanol], the IC50 was no more than 10 nM.
Work on `CS(=O)(=O)C[C@@H](Oc1ccc(Cl)c(C#N)c1)[C@H]1CCNC1` [Example 2-22, 2-Chloro-5-((S)-2-methanesulfonyl-1-(S)-pyrrolidin-3-ylethoxy)benzonitrile] yielded an IC50 of no more than 10 nM.
`CS(=O)(=O)C[C@@H](Oc1ccc(C(F)(F)F)nc1)[C@@H]1CCNC1` [Example 5] gave an IC50 of no more than 100 nM.
`CS(=O)(=O)C[C@@H](Oc1ccc(C(F)(F)F)nc1)[C@@H]1CCNC1` (stereo in doubt) [Example 6-1, 5-((R)-2-Methanesulfonyl-1-(S)-pyrrolidin-3-ylethoxy)-2-trifluoromethylpyridine] was tested, and the IC50 was no more than 100 nM.
Work on `CS(=O)(=O)CCC(Oc1ccc(C(F)(F)F)cc1)[C@@H]1CCNC1` (single isomer, unassigned) [Example 8-1] yielded an IC50 of no more than 100 nM.
With `CC(C)S(=O)(=O)C[C@@H](Oc1ccc(C(F)(F)F)cc1)[C@H]1CCNC1` [Example 2-13, (S)-3-[(S)-2-(Propane-2-sulfonyl)-1-(4-trifluoromethylphenoxy)ethyl]pyrrolidine] the IC50 was no more than 10 nM.
`CS(=O)(=O)C[C@@H](Oc1ccc(C(F)(F)F)nc1)[C@H]1CCNC1` [Example 6-2, 5-((S)-2-Methanesulfonyl-1-(S)-pyrrolidin-3-ylethoxy)-2-trifluoromethylpyridine] showed an IC50 of no more than 100 nM.
`COc1cc([N+](=O)[O-])ccc1O[C@@H](CS(C)(=O)=O)[C@H]1CCNC1` [Example 2-25, (S)-3-[(R)-2-Methanesulfonyl-1-(2-methoxy-4-nitrophenoxy)ethyl]pyrrolidine] was tested, and the IC50 was no more than 100 nM.
For `CS(=O)(=O)C[C@H](Oc1ccc(C(F)(F)F)c(C#N)c1)[C@H]1CCNC1` (stereo in doubt) [Example 2-21, 5-((S)-2-Methanesulfonyl-1-(R)-pyrrolidin-3-ylethoxy)-2-trifluoromethyl-benzonitrile], the IC50 was no more than 10 nM.
`CC(=O)NCCS(=O)(=O)C[C@@H](Oc1ccc(C(F)(F)F)cc1)[C@H]1CCNC1` [Example 2-14, N-{2-[(S)-2-(S)-Pyrrolidin-3-yl-2-(4-trifluoromethylphenoxy)ethanesulfonyl]-ethyl}-acetamide] was tested, and the IC50 was no more than 10 nM.
Compound `COc1cc([N+](=O)[O-])ccc1O[C@H](CS(C)(=O)=O)[C@@H]1CCNC1` [Example 2-26, (R)-3-[(S)-2-Methanesulfonyl-1-(2-methoxy-4-nitrophenoxy)ethyl]pyrrolidine] has an IC50 of no more than 100 nM.
For `CS(=O)(=O)C[C@@H](Oc1ccc(OC(F)(F)F)cc1)[C@@H]1CCNC1` [Example 2-11, (R)-3-[(S)-2-Methanesulfonyl-1-(4-trifluoromethoxyphenoxy)ethyl]pyrrolidine], the IC50 was no more than 10 nM.
In the case of `CS(=O)(=O)C[C@H](Oc1ccc([N+](=O)[O-])cc1)[C@H]1CCNC1` [Example 2-6, (S)-3-[(R)-2-Methanesulfonyl-1-(4-nitro-phenoxy)ethyl]pyrrolidine], the IC50 is reported as no more than 100 nM.
Compound `CS(=O)(=O)C[C@H](Oc1ccc(Cl)c(C#N)c1)[C@H]1CCNC1` (stereo in doubt) [Example 2-24, 2-Chloro-5-((S)-2-methanesulfonyl-1-(R)-pyrrolidin-3-ylethoxy)benzonitrile] has an IC50 of no more than 10 nM.
`CS(=O)(=O)C[C@H](Oc1ccc(Cl)nc1)[C@H]1CCNC1` (stereo in doubt) [Example 6-4, 2-Chloro-5-((S)-2-methanesulfonyl-1-(R)-pyrrolidin-3-ylethoxy)pyridine] showed an IC50 of no more than 100 nM.
In the case of `CS(=O)(=O)C[C@@H](Oc1ccc(C(F)(F)F)c(C#N)c1)[C@H]1CCNC1` [Example 2-20, 5-((S)-2-Methanesulfonyl-1-(S)-pyrrolidin-3-ylethoxy)-2-trifluoromethyl-benzonitrile], the IC50 is reported as no more than 100 nM.
For `CS(=O)(=O)C[C@H](Oc1ccc(Cl)cc1)[C@H]1CCNC1` [Example 2-4, (S)-3-[(R)-1-(4-Chlorophenoxy)-2-methanesulfonylethyl]pyrrolidine], the IC50 was no more than 100 nM.
In the case of `CS(=O)(=O)C[C@H](Oc1ccc(Cl)cn1)[C@H]1CCNC1` (stereo in doubt) [Example 4-2, 5-Chloro-2-((S)-2-methanesulfonyl-1-(R)-pyrrolidin-3-ylethoxy)pyridine], the IC50 is reported as no more than 100 nM.
Compound `CC(C)S(=O)(=O)CCC(Oc1ccc(C(F)(F)F)cc1)[C@H]1CCNC1` (single isomer, unassigned) [Example 8-5] has an IC50 of no more than 10 nM.
`CS(=O)(=O)C[C@@H](Oc1ccc(C(F)(F)F)cn1)[C@H]1CCNC1` [Example 4-3, 2-((S)-2-Methanesulfonyl-1-(S)-pyrrolidin-3-yl-ethoxy)-5-trifluoromethyl-pyridine] gave an IC50 of no more than 10 nM.
For `CS(=O)(=O)C[C@@H](Oc1ccc(OC(F)(F)F)cc1)[C@H]1CCNC1` [Example 2-9, (S)-3-[(S)-2-Methanesulfonyl-1-(4-trifluoromethoxyphenoxy)ethyl]pyrrolidine], the IC50 was no more than 100 nM.
`CS(=O)(=O)C[C@@H](Oc1ccc(Cl)cn1)[C@H]1CCNC1` [Example 4-1, 5-Chloro-2-((S)-2-methanesulfonyl-1-(S)-pyrrolidin-3-ylethoxy)pyridine] was tested, and the IC50 was no more than 100 nM.
